# Experimental data: patent publication US10695337B2, “Piperidin-4-yl azetidine derivatives as JAK1 inhibitors” (Incyte Corporation, priority 2010, dated 2020)
# Target: human JAK1 (a.a. 837-1142)
# Assay: In vitro JAK kinase assay (HTRF, phosphorylation of a biotinylated peptide), JAK1
# Format: biochemical
# Conditions: measured at 1 mM ATP; JAK2 IC50 / JAK1 IC50
# Outline: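 N-terminally His-tagged catalytic domains, baculovirus-expressed in insect cells and purified, were used as enzyme. Reactions ran 1 hr at room temperature and were stopped with a mix of 45 mM EDTA, 300 nM SA-APC and 6 nM Eu-Py20. The HTRF signal was read after 40 min of antibody binding.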
row,IC50 Ratio JAK2/JAK1,Structure (SMILES)
1,15.0,"N#CCC1(n2cc(-c3ncnc4[nH]ccc34)cn2)CN(C2CCN(C(=O)Nc3cscc3Br)CC2)C1 [Example 159, N-(4-bromo-3-thienyl)-4-{3-(cyanomethyl)-3-[4-(7H-pyrrolo[2,3-d]pyrimidin-4-yl)-1H-pyrazol-1-yl]azetidin-1-yl}piperidine-1-carboxamide]"
2,12.0,"N#CCC1(n2cc(-c3ncnc4[nH]ccc34)cn2)CN(C2CCN(C(=O)Nc3ccccc3Cl)CC2)C1 [Example 163, N-(2-chlorophenyl)-4-{3-(cyanomethyl)-3-[4-(7H-pyrrolo[2,3-d]pyrimidin-4-yl)-1H-pyrazol-1-yl]azetidin-1-yl}piperidine-1-carboxamide]"
3,5.5,"N#CCC1(n2cc(-c3ncnc4[nH]ccc34)cn2)CN(C2CCN(C(=O)Nc3cccc(C(F)(F)F)c3)CC2)C1 [Example 166, 4-{3-(cyanomethyl)-3-[4-(7H-pyrrolo[2,3-d]pyrimidin-4-yl)-1H-pyrazol-1-yl]azetidin-1-yl}-N-[3-(trifluoromethyl)phenyl]piperidine-1-carboxamide]"
4,2.0,"N#CCC1(n2cc(-c3ncnc4[nH]ccc34)cn2)CN(C2CCN(C(=O)Nc3ccc(C(F)(F)F)cc3)CC2)C1 [Example 167, 4-{3-(cyanomethyl)-3-[4-(7H-pyrrolo[2,3-d]pyrimidin-4-yl)-1H-pyrazol-1-yl]azetidin-1-yl}-N-[4-(trifluoromethyl)phenyl]piperidine-1-carboxamide]"
5,2.6,"Cc1ccc(Cl)cc1NC(=O)N1CCC(N2CC(CC#N)(n3cc(-c4ncnc5[nH]ccc45)cn3)C2)CC1 [Example 168, N-(5-chloro-2-methylphenyl)-4-{3-(cyanomethyl)-3-[4-(7H-pyrrolo[2,3-d]pyrimidin-4-yl)-1H-pyrazol-1-yl]azetidin-1-yl}piperidine-1-carboxamide]"
6,5.5,"N#CCC1(n2cc(-c3ncnc4[nH]ccc34)cn2)CN(C2CCN(C(=O)Nc3ccccc3F)CC2)C1 [Example 169, 4-{3-(cyanomethyl)-3-[4-(7H-pyrrolo[2,3-d]pyrimidin-4-yl)-1H-pyrazol-1-yl]azetidin-1-yl}-N-(2-fluorophenyl)piperidine-1-carboxamide]"
7,6.9,"N#CCC1(n2cc(-c3ncnc4[nH]ccc34)cn2)CN(C2CCN(C(=O)Nc3cccc(C(F)(F)F)c3F)CC2)C1 [Example 170, 4-{3-(cyanomethyl)-3-[4-(7H-pyrrolo[2,3-d]pyrimidin-4-yl)-1H-pyrazol-1-yl]azetidin-1-yl}-N-[2-fluoro-3-(trifluoromethyl)phenyl]piperidine-1-carboxamide]"
8,7.5,"N#CCC1(n2cc(-c3ncnc4[nH]ccc34)cn2)CN(C2CCN(C(=O)Nc3ccc(F)cc3F)CC2)C1 [Example 171, 4-{3-(cyanomethyl)-3-[4-(7H-pyrrolo[2,3-d]pyrimidin-4-yl)-1H-pyrazol-1-yl]azetidin-1-yl}-N-(2,4-difluorophenyl) piperidine-1-carboxamide]"
9,5.7,"N#CCC1(n2cc(-c3ncnc4[nH]ccc34)cn2)CN(C2CCN(C(=O)Nc3cc(F)cc(F)c3F)CC2)C1 [Example 173, 4-{3-(cyanomethyl)-3-[4-(7H-pyrrolo[2,3-d]pyrimidin-4-yl)-1H-pyrazol-1-yl]azetidin-1-yl}-N-(2,3,5-trifluorophenyl)piperidine-1-carboxamide]"
10,7.1,"N#CCC1(n2cc(-c3ncnc4[nH]ccc34)cn2)CN(C2CCN(C(=O)Nc3cc(F)ccc3F)CC2)C1 [Example 174, 4-{3-(cyanomethyl)-3-[4-(7H-pyrrolo[2,3-d]pyrimidin-4-yl)-1H-pyrazol-1-yl]azetidin-1-yl}-N-(2,5-difluorophenyl) piperidine-1-carboxamide]"
11,3.6,"N#CCC1(n2cc(-c3ncnc4[nH]ccc34)cn2)CN(C2CCN(C(=O)Nc3cc(F)cc(F)c3)CC2)C1 [Example 175, 4-{3-(cyanomethyl)-3-[4-(7H-pyrrolo[2,3-d]pyrimidin-4-yl)-1H-pyrazol-1-yl]azetidin-1-yl}-N-(3,5-difluorophenyl) piperidine-1-carboxamide]"

# More lines, now with the values behind:
row,Structure (SMILES),IC50 Ratio JAK2/JAK1
1,"N#CCC1(n2cc(-c3ncnc4[nH]ccc34)cn2)CN(C2CCN(C(=O)c3ccc(-c4cccc5ccncc45)c(F)c3)CC2)C1 [Example 131, {1-[1-(3-fluoro-4-isoquinolin-8-ylbenzoyl)piperidin-4-yl]-3-[4-(7H-pyrrolo[2,3-d]pyrimidin-4-yl)-1H-pyrazol-1-yl]azetidin-3-yl} acetonitrile]",8.1
2,"N#CCC1(n2cc(-c3ncnc4[nH]ccc34)cn2)CN(C2CCN(C(=O)c3ccc(-c4ccc5ccncc5c4)c(F)c3)CC2)C1 [Example 133, {1-[1-(3-fluoro-4-isoquinolin-7-ylbenzoyl)piperidin-4-yl]-3-[4-(7H-pyrrolo[2,3-d]pyrimidin-4-yl)-1H-pyrazol-1-yl]azetidin-3-yl} acetonitrile]",7.9
3,"N#CCC1(n2cc(-c3ncnc4[nH]ccc34)cn2)CN(C2CCN(C(=O)c3ccc(-c4ccc5cccnc5c4)c(F)c3)CC2)C1 [Example 134, {1-[1-(3-fluoro-4-quinolin-7-ylbenzoyl)piperidin-4-yl]-3-[4-(7H-pyrrolo[2,3-d]pyrimidin-4-yl)-1H-pyrazol-1-yl]azetidin-3-yl} acetonitrile]",6.7
4,"N#CCC1(n2cc(-c3ncnc4[nH]ccc34)cn2)CN(C2CCN(C(=O)c3ccc(-c4ccc5nccn5c4)c(F)c3)CC2)C1 [Example 135, {1-[1-(3-fluoro-4-imidazo[1,2-a]pyridin-6-ylbenzoyl)piperidin-4-yl]-3-[4-(7H-pyrrolo[2,3-d]pyrimidin-4-yl)-1H-pyrazol-1-yl]azetidin-3-yl} acetonitrile]",7.1
5,"N#CCC1(n2cc(-c3ncnc4[nH]ccc34)cn2)CN(C2CCN(C(=O)c3ccc(-c4nc5ccccc5o4)cc3)CC2)C1 [Example 136, {1-{1-[4-(1,3-benzoxazol-2-yl)benzoyl]piperidin-4-yl}-3-[4-(7H-pyrrolo[2,3-d]pyrimidin-4-yl)-1H-pyrazol-1-yl]azetidin-3-yl}acetonitrile]",5.6
6,"N#CCC1(n2cc(-c3ncnc4[nH]ccc34)cn2)CN(C2CCN(C(=O)c3ccc(-c4nc5ccccc5o4)c(F)c3)CC2)C1 [Example 137, {1-{1-[4-(1,3-benzoxazol-2-yl)-3-fluorobenzoyl]piperidin-4-yl}-3-[4-(7H-pyrrolo[2,3-d]pyrimidin-4-yl)-1H-pyrazol-1-yl]azetidin-3-yl} acetonitrile]",6.0
7,"N#CCC1(n2cc(-c3ncnc4[nH]ccc34)cn2)CN(C2CC3CCC(C2)N3C(=O)c2ccc(F)c(F)c2)C1 (centres unmarked) [Example 139, {1-[8-(3,4-difluorobenzoyl)-8-azabicyclo[3.2.1]oct-3-yl]-3-[4-(7H-pyrrolo[2,3-d]pyrimidin-4-yl)-1H-pyrazol-1-yl]azetidin-3-yl}acetonitrile]",4.4
8,"N#CCC1(n2cc(-c3ncnc4[nH]ccc34)cn2)CN(C2CC3CCC(C2)N3C(=O)c2ccc(C#N)c(F)c2)C1 (centres unmarked) [Example 140, 4-[(3-{3-(cyanomethyl)-3-[4-(7H-pyrrolo[2,3-d]pyrimidin-4-yl)-1H-pyrazol-1-yl]azetidin-1-yl}-8-azabicyclo[3.2.1]oct-8-yl)carbonyl]-2-fluorobenzonitrile]",5.4
9,"N#CCC1(n2cc(-c3ncnc4[nH]ccc34)cn2)CN(C2CC3CCC(C2)N3C(=O)c2ccc(Cl)c(F)c2)C1 (centres unmarked) [Example 141, {1-[8-(4-chloro-3-fluorobenzoyl)-8-azabicyclo[3.2.1]oct-3-yl]-3-[4-(7H-pyrrolo[2,3-d]pyrimidin-4-yl)-1H-pyrazol-1-yl]azetidin-3-yl}acetonitrile]",6.2
10,"N#CCC1(n2cc(-c3ncnc4[nH]ccc34)cn2)CN(C2CC3CCC(C2)N3C(=O)c2ccnc(C(F)(F)F)c2F)C1 (centres unmarked) [Example 142, {1-{8-[3-fluoro-2-(trifluoromethyl)isonicotinoyl]-8-azabicyclo[3.2.1]oct-3-yl}-3-[4-(7H-pyrrolo[2,3-d]pyrimidin-4-yl)-1H-pyrazol-1-yl]azetidin-3-yl}acetonitrile]",7.4
11,"N#CCC1(n2cc(-c3ncnc4[nH]ccc34)cn2)CN(C2CC3CCC(C2)N3C(=O)c2ccc(C(F)(F)F)nc2)C1 (centres unmarked) [Example 143, [3-[4-(7H-pyrrolo[2,3-d]pyrimidin-4-yl)-1H-pyrazol-1-yl]-1-(8-{[6-(trifluoromethyl)pyridin-3-yl]carbonyl}-8-azabicyclo[3.2.1]oct-3-yl)azetidin-3-yl]acetonitrile]",3.5
12,"CC1CC(N2CC(CC#N)(n3cc(-c4ncnc5[nH]ccc45)cn3)C2)CCN1C(=O)C1CCC(F)(F)CC1 (centres unmarked) [Example 151, {1-{1-[(4,4-difluorocyclohexyl)carbonyl]-2-methylpiperidin-4-yl}-3-[4-(7H-pyrrolo[2,3-d]pyrimidin-4-yl)-1H-pyrazol-1-yl]azetidin-3-yl}acetonitrile]",5.8
13,"CC1(N2CC(CC#N)(n3cc(-c4ncnc5[nH]ccc45)cn3)C2)CCN(C(=O)c2cccc(F)c2)CC1 [Example 152, {1-[1-(3-Fluorobenzoyl)-4-methylpiperidin-4-yl]-3-[4-(7H-pyrrolo[2,3-d]pyrimidin-4-yl)-1H-pyrazol-1-yl]azetidin-3-yl}acetonitrile]",4.0
14,"N#CCC1(n2cc(-c3ncnc4[nH]ccc34)cn2)CN(C2CCN(C(=O)Nc3ccccc3OC(F)(F)F)CC2)C1 [Example 158, 4-{3-(cyanomethyl)-3-[4-(7H-pyrrolo[2,3-d]pyrimidin-4-yl)-1H-pyrazol-1-yl]azetidin-1-yl}-N-[2-(trifluoromethoxy)phenyl]piperidine-1-carboxamide]",12.0
15,"N#CCC1(n2cc(-c3ncnc4[nH]ccc34)cn2)CN(C2CCN(C(=O)Nc3ccc(F)c(F)c3)CC2)C1 [Example 176, 4-{3-(cyanomethyl)-3-[4-(7H-pyrrolo[2,3-d]pyrimidin-4-yl)-1H-pyrazol-1-yl]azetidin-1-yl}-N-(3,4-difluorophenyl) piperidine-1-carboxamide]",5.1
